The test system of test [1] is pPDK1. The test can be described thus: Western blot, PDK1 phosphorylation in KG-1 cells. The following applies: Homo sapiens; KG-1, 100 nM; read-out: inhibition of pPDK1 levels. The format is cell-based. The procedure: (§1) For phosphoprotein analyses, cells were seeded into 10 cm petri dishes (10×10^6 cells/dish) in media supplemented with 10% FBS and penicillin/streptomycin. After cells recovered for 1 hr at 37° C., compounds were added in DMSO (0.1% final) and incubated for 4 or 24 hr at 37° C. Cells were then harvested by centrifugation and washed with cold PBS. Cell pellets were resuspended in cell extraction buffer (Invitrogen) supplemented with 2×Halt™ protease and phosphatase inhibitor cocktail (Thermo Scientific), 2 mM sodium orthovanadate, 10 mM EDTA and 4 mM PMSF. Samples were lysed by sonication and incubated on ice for 30 min. Cell debris was removed by centrifugation and protein concentrations were determined using the BCA Protein Assay Kit (Pierce). The clarified lysate was diluted in LDS sample buffer with reducing agent (Life Technologies). After heating to 70° C. samples were cooled and loaded onto 4-12% Bis-Tris gels (Life Technologies) at 50 μg/well. Gels were run at 110 V and proteins were transferred to a PVDF membrane. Membranes were blocked in TBS blocking buffer (Li-Cor Biosciences) for 1 hr. Primary antibodies (Cell Signaling, Sant Cruz Biotechnology) were added (1:1,000 dilution) in blocking buffer with 0.1% Tween-20 and 1:20,000 dilution of β-actin antibody and incubated for 14 hr at 4° C. […] Bands were quantitated using ImageJ.

Test [2] deals with pRSK2. The test can be described thus: Western blot, RSK2 phosphorylation in KG-1 cells. The following applies: Homo sapiens; KG-1, 100 nM; read-out: inhibition of pRSK2 levels. In kind it is cell-based. The procedure: as §1
On the technique in general: In western blotting, separated proteins are transferred to a membrane and probed.

Test [3] deals with P-RSK2. Kind of test: Western blot, RSK2 phosphorylation in C1498 cells. The format is cell-based, murine. The following applies: C1498, 30-100 nM range. The procedure: as §1, with “After heating to 70° C. samples were cooled and loaded onto 4-12% Bis-Tris gels (Life Technologies) at 50 μg/well.” left out
Test [4] concerns P-RSK2. The test can be described thus: Western blot, RSK2 phosphorylation in A20 cells. In kind it is cell-based, murine. The conditions noted are these: Mus musculus; A20, 300 nM. Here is the method:
as §1

The subject of test [5] is P-AKT. The test can be described thus: Western blot, AKT phosphorylation in A20 cells. In kind it is cell-based, murine. Here is the method:
(§2) For phosphoprotein analyses, cells were seeded into 10 cm petri dishes (10×10^6 cells/dish) in media supplemented with 10% FBS and penicillin/streptomycin. After cells recovered for 1 hr at 37° C., compounds were added in DMSO (0.1% final) and incubated for 4 or 24 hr at 37° C. Cells were then harvested by centrifugation and washed with cold PBS. Cell pellets were resuspended in cell extraction buffer (Invitrogen) supplemented with 2×Halt™ protease and phosphatase inhibitor cocktail (Thermo Scientific), 2 mM sodium orthovanadate, 10 mM EDTA and 4 mM PMSF. Samples were lysed by sonication and incubated on ice for 30 min. Cell debris was removed by centrifugation and protein concentrations were determined using the BCA Protein Assay Kit (Pierce). The clarified lysate was diluted in LDS sample buffer with reducing agent (Life Technologies). […] Gels were run at 110 V and proteins were transferred to a PVDF membrane. Membranes were blocked in TBS blocking buffer (Li-Cor Biosciences) for 1 hr. Primary antibodies (Cell Signaling, Sant Cruz Biotechnology) were added (1:1,000 dilution) in blocking buffer with 0.1% Tween-20 and 1:20,000 dilution of β-actin antibody and incubated for 14 hr at 4° C. Blots were washed in TBS-T. Label-conjugated goat anti-rabbit secondary antibody (IRdye® 800CW; Li-Cor Biosciences) was added in blocking buffer with 0.1% Tween-20 and 0.02% SDS and incubated for 1 hr. After washing in TBS-T followed by TBS, membranes were scanned on an Odyssey imaging system (Li-Cor Biosciences). Bands were quantitated using ImageJ.

Test [6] has as its system PDK1 and RSK2 phosphorylation. Kind of test: Western blot pathway modulation, summary over cell lines. In kind it is cell-based. Here is the method: as §1, with “After heating to 70° C. samples were cooled and loaded onto 4-12% Bis-Tris gels (Life Technologies) at 50 μg/well.” left out
For test [7], the system named is P-RSK2. The test can be described thus: Western blot, RSK2 phosphorylation in MV4-11 cells. The format is cell-based, human. Here is the method: as §2
Test [8] relates to P-PDK1. Kind of test: Western blot, PDK1 phosphorylation in C1498 cells. The format is cell-based, murine. The following applies: C1498, 30-100 nM range. Here is the method:
as §1, with “After heating to 70° C. samples were cooled and loaded onto 4-12% Bis-Tris gels (Life Technologies) at 50 μg/well.” left out

Test [9] has as its system MV4-11 cells. Kind of test: Induction of apoptosis (Annexin V / propidium iodide flow cytometry). The format is cell-based, human. Here is the method:
Cells were seeded in a six-well tissue culture plate in 3 mL complete growth medium (3×10^5 cells/well) and allowed to equilibrate for 1 hr at 37° C. in a humidified incubator with 5% CO2. DMSO (control), test compound, or doxorubicin was added to the wells (0.1% final DMSO concentration). Cells were returned to the incubator for 24 hrs. On the day of analysis 1×10^5 cells were labeled according to manufacturer's instructions and analyzed by flow cytometry (BD FACSCaalibur™, GH) to determine the percent of apoptotic cells (annexin V positive, AV+) and/or apoptotic dead cells (AV+ and propidium iodide positive (PI+)).
On the technique in general: A flow cytometer gives signals particle by particle.

The subject of test [10] is P-PDK1. The test can be described thus: Western blot, PDK1 phosphorylation in MV4-11 cells. In kind it is cell-based, human. Here is the method: as §2
Setting [11] is: Homo sapiens, MV4-11, FIG. 6C, 30 nM, 4 hrs.

The structures appear in SMILES notation. Where only a bound is given, the exact number is not on record here.

The inhibition is the change of the read-out against control, counted positive when it falls. Turning to `C[C@H](NC(=O)c1nc(C#N)cnc1NCc1ccc(-c2cnc3[nH]nc(N)c3n2)cc1)c1ccc(F)c(F)c1` [Compound 1, 3-[4-(3-Amino-1H-pyrazolo[3,4-b]pyrazin-5-yl)-benzylamino]-6-cyano-pyrazine-2-carboxylic acid [1-(3,4-difluoro-phenyl)-ethyl]-amide], the inhibition at 0.1 µM in test [1] and in [2] was more than 80% each time.

In turn, `CNc1n[nH]c2ncc(-c3ccc(CNc4ncc(C#N)nc4C(=O)N[C@@H](C)c4ccc(F)c(F)c4)cc3)cc12` [Compound 2, 6-Cyano-3-[4-(3-methylamino-1H-pyrazolo[3,4-b]pyridin-5-yl)-benzylamino]-pyrazine-2-carboxylic acid [1-(3,4-difluoro-phenyl)-ethyl]-amide] gave a P-RSK2 inhibition in [3] of more than 90%. The compound further came in with an inhibition at 0.3 µM in [4] of more than 90%. In addition, the “P-AKT levels” value in test [5] is listed as “sensitive”. The “fold more inhibition of PDK1 phosphorylation after 24 hours than 4 hours” value in test [6] is recorded as 2-5 fold. The “fold more potent than GSK-2334470 in inhibiting phosphorylation of both PDK1 and RSK2” value in test [6] (MV4-11, FIG. 6) came out at 10 fold. The inhibition at 0.03 µM in test [7] (setting [11]) was determined as 90%; in test [10] (setting [11]), 40%. Besides, the inhibition at 0.1 µM in test [7] (Homo sapiens, MV4-11, 100 nM) is more than 95%; in test [10] (Homo sapiens, MV4-11, 100 nM) it was 90%. In addition, the “inhibition of RSK2 phosphorylation” value in [7] (MV4-11, 30 nM, various times) was “potent and time-independent”. This compound also yielded a P-PDK1 inhibition in [8] of approximately 80%. In addition, the “apoptosis at 100 nM” value in [9] (100 nM) is recorded as “induces apoptosis”. In addition, the “apoptosis after 24 hours” value in test [9] (24 hours) is on record as “substantial apoptosis”. For the same compound, in test [10] (MV4-11, 30 nM), the “fold decrease in PDK1 phosphorylation between 4 hr and 24 hr exposure” value is listed as 5 fold.

The record behind these values is patent US20240207258A1, “HETEROCYCLIC PDK1 INHIBITORS FOR USE TO TREAT CANCER” (Viracta Therapeutics, Inc., priority 2015, published 2024).
